# Measurements from the supplement of paper PMC11208160.
# Test: recombinant UMI read abundance after kanamycin selection (control-corrected) (log10(CPM+1)); higher = more efficient recombination; extreme values may be limits of the assay; sequences stand for … in AGTGCAGAGAAAATCGGCCAGTTTTCTCTGCCTGCAGTCCGCATGCCGTGGGACCCCTTGGGTTCTAACCTGTTGCCTAGATTTATGCAGCGGACTGCCTTTCTCCCAAAGTGATAAACCGG…AGGTTGGTTTCACT; site = the 11-nt donor
# Procedure: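 Pooled E. coli donor-specificity screen for the IS621 bridge recombinase. Each library member carries a reprogrammed 11-nt donor and a full-length LE bridge RNA expressed in cis from the natural promoter, with a paired donor-binding loop (8-nt LDG + 4-nt RDG) and a target-binding loop fixed to T5. It is co-electroporated with a T5 target plasmid; recombinase is induced with 0.07 mM IPTG and recombinants are selected on kanamycin. UMIs are counted as CPM, averaged over two biological replicates and corrected by the unselected control. Molecule = full bridge RNA written as DNA, built from the T5 scaffold: LDG = donor specificity nt 1-8, RDG = reverse complement of nt 8-11.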
# 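Also: IS621 bridge recombinase in Escherichia coli cells against a fixed T5 target plasmid.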
row,Sequence,recombinant UMI read abundance (log10)
1,AAAACACCATGGACCGGTTTTCCCGGTAATCCGTATTTGCG (site AAAACACCTCG),0.012
2,AAAACCCCATGGACCGGTTTTCCCGGTAATCCGTATTTGGA (site AAAACCCCTTC),0.00874
3,AAAACTACATGGACCGGTTTTCCCGGTAATCCGTATTTGCG (site AAAACTACTCG),1.1
4,AAAAGAACATGGACCGGTTTTCCCGGTAATCCGTATTTGAA (site AAAAGAACTTT),2.03
5,AAAAGACCATGGACCGGTTTTCCCGGTAATCCGTATTTGTA (site AAAAGACCTTA),0
6,AAAAGCACATGGACCGGTTTTCCCGGTAATCCGTATTTGCA (site AAAAGCACTTG),2.36
7,AAACATACATGGACCGGTTTTCCCGGTAATCCGTATTTGTG (site AAACATACTCA),1.38
8,AAACCAGCATGGACCGGTTTTCCCGGTAATCCGTATTTGGC (site AAACCAGCTGC),0
9,AAAGCTCCATGGACCGGTTTTCCCGGTAATCCGTATTTGCG (site AAAGCTCCTCG),0.472
10,AAAGCTTCATGGACCGGTTTTCCCGGTAATCCGTATTTGGG (site AAAGCTTCTCC),0.447
11,AAAGGGGCATGGACCGGTTTTCCCGGTAATCCGTATTTGGG (site AAAGGGGCTCC),0
12,AAAGTAGCATGGACCGGTTTTCCCGGTAATCCGTATTTGGC (site AAAGTAGCTGC),2.01
13,AAAGTCACATGGACCGGTTTTCCCGGTAATCCGTATTTGAC (site AAAGTCACTGT),2.44
14,AAATATTCATGGACCGGTTTTCCCGGTAATCCGTATTTGGG (site AAATATTCTCC),0.372
15,AAATCAGCATGGACCGGTTTTCCCGGTAATCCGTATTTGTT (site AAATCAGCTAA),0.425
16,AAATCGTCATGGACCGGTTTTCCCGGTAATCCGTATTTGCT (site AAATCGTCTAG),2.36
17,AACAGACCATGGACCGGTTTTCCCGGTAATCCGTATTTGCG (site AACAGACCTCG),0
18,AACAGACCATGGACCGGTTTTCCCGGTAATCCGTATTTGTA (site AACAGACCTTA),1.25
19,AACAGCCCATGGACCGGTTTTCCCGGTAATCCGTATTTGCA (site AACAGCCCTTG),0.756
20,AACAGCGCATGGACCGGTTTTCCCGGTAATCCGTATTTGAC (site AACAGCGCTGT),2
21,AACATGCCATGGACCGGTTTTCCCGGTAATCCGTATTTGCT (site AACATGCCTAG),1.43
22,AACCAAACATGGACCGGTTTTCCCGGTAATCCGTATTTGAA (site AACCAAACTTT),1.31
23,AACCCAACATGGACCGGTTTTCCCGGTAATCCGTATTTGAC (site AACCCAACTGT),2.68
24,AACCGACCATGGACCGGTTTTCCCGGTAATCCGTATTTGAT (site AACCGACCTAT),0.0205

row,Sequence,recombinant UMI read abundance (log10)
1,AACCGACCATGGACCGGTTTTCCCGGTAATCCGTATTTGAT (site AACCGCCCTAT),0
2,AACCGACCATGGACCGGTTTTCCCGGTAATCCGTATTTGAT (site AACCGGCCTAT),0.0183
3,AACCGACCATGGACCGGTTTTCCCGGTAATCCGTATTTGAT (site AACCGTCCTAT),0.0119
4,AACCGTGCATGGACCGGTTTTCCCGGTAATCCGTATTTGTG (site AACCGTGCTCA),0.0421
5,AACCTTCCATGGACCGGTTTTCCCGGTAATCCGTATTTGAT (site AACCATCCTAT),0.00673
6,AACCTTCCATGGACCGGTTTTCCCGGTAATCCGTATTTGAT (site AACCCTCCTAT),0.0165
7,AACCTTCCATGGACCGGTTTTCCCGGTAATCCGTATTTGAT (site AACCGTCCTAT),0.0124
8,AACCTTCCATGGACCGGTTTTCCCGGTAATCCGTATTTGAT (site AACCTTCCTAT),0
9,AACGATGCATGGACCGGTTTTCCCGGTAATCCGTATTTGAC (site AACGATGCTGT),2.22
10,AACGCCGCATGGACCGGTTTTCCCGGTAATCCGTATTTGTC (site AACGCCGCTGA),2.24
11,AACGGTCCATGGACCGGTTTTCCCGGTAATCCGTATTTGAT (site AACAGTCCTAT),0.00739
12,AACGGTCCATGGACCGGTTTTCCCGGTAATCCGTATTTGAT (site AACCGTCCTAT),0
13,AACGGTCCATGGACCGGTTTTCCCGGTAATCCGTATTTGAT (site AACGGTCCTAT),0
14,AACGGTCCATGGACCGGTTTTCCCGGTAATCCGTATTTGAT (site AACTGTCCTAT),0.145
15,AACGTAACATGGACCGGTTTTCCCGGTAATCCGTATTTGCT (site AAAGTAACTAG),0.893
16,AACGTAACATGGACCGGTTTTCCCGGTAATCCGTATTTGCT (site AACGTAACTAG),2.51
17,AACGTAACATGGACCGGTTTTCCCGGTAATCCGTATTTGCT (site AAGGTAACTAG),0.524
18,AACGTAACATGGACCGGTTTTCCCGGTAATCCGTATTTGCT (site AATGTAACTAG),1.49
19,AACGTATCATGGACCGGTTTTCCCGGTAATCCGTATTTGCA (site AACGTATCTTG),2.73
20,AACGTATCATGGACCGGTTTTCCCGGTAATCCGTATTTGCA (site ACAGTATCTTG),1.07
21,AACGTCTCATGGACCGGTTTTCCCGGTAATCCGTATTTGTC (site AACGTCTCTGA),3.05
22,AACGTGTCATGGACCGGTTTTCCCGGTAATCCGTATTTGTT (site AACGTGTCTAA),2.59
23,AACTAGACATGGACCGGTTTTCCCGGTAATCCGTATTTGAG (site AACTAGACTCT),1.48
24,AACTATACATGGACCGGTTTTCCCGGTAATCCGTATTTGGT (site AACTATACTAC),1.26

row,Sequence,recombinant UMI read abundance (log10)
1,AACTCATCATGGACCGGTTTTCCCGGTAATCCGTATTTGAA (site AACTCATCTTT),1.19
2,AACTCGCCATGGACCGGTTTTCCCGGTAATCCGTATTTGCT (site AACTCGCCTAG),1.56
3,AACTCGCCATGGACCGGTTTTCCCGGTAATCCGTATTTGTT (site AACTCGCCTAA),0.0268
4,AACTGGTCATGGACCGGTTTTCCCGGTAATCCGTATTTGAC (site AACTGGTCTGT),1.18
5,AAGAATTCATGGACCGGTTTTCCCGGTAATCCGTATTTGTA (site AAGAATTCTTA),2.33
6,AAGACCGCATGGACCGGTTTTCCCGGTAATCCGTATTTGCC (site AAGACCGCTGG),2.73
7,AAGATGCCATGGACCGGTTTTCCCGGTAATCCGTATTTGTG (site AAGATGCCTCA),0.653
8,AAGATTCCATGGACCGGTTTTCCCGGTAATCCGTATTTGTA (site AAGATTCCTTA),1.3
9,AAGCACGCATGGACCGGTTTTCCCGGTAATCCGTATTTGAG (site AAGCACGCTCA),0.629
10,AAGCACGCATGGACCGGTTTTCCCGGTAATCCGTATTTGAG (site AAGCACGCTCC),0.225
11,AAGCACGCATGGACCGGTTTTCCCGGTAATCCGTATTTGAG (site AAGCACGCTCG),0.644
12,AAGCACGCATGGACCGGTTTTCCCGGTAATCCGTATTTGAG (site AAGCACGCTCT),1.49
13,AAGCACGCATGGACCGGTTTTCCCGGTAATCCGTATTTGCG (site AAGCACGCTCA),0.289
14,AAGCACGCATGGACCGGTTTTCCCGGTAATCCGTATTTGCG (site AAGCACGCTCC),0.223
15,AAGCACGCATGGACCGGTTTTCCCGGTAATCCGTATTTGCG (site AAGCACGCTCG),1.44
16,AAGCACGCATGGACCGGTTTTCCCGGTAATCCGTATTTGCG (site AAGCACGCTCT),0.766
17,AAGCACGCATGGACCGGTTTTCCCGGTAATCCGTATTTGGC (site AAGCACGCTAC),0.701
18,AAGCACGCATGGACCGGTTTTCCCGGTAATCCGTATTTGGC (site AAGCACGCTCC),0.0935
19,AAGCACGCATGGACCGGTTTTCCCGGTAATCCGTATTTGGC (site AAGCACGCTGC),2.71
20,AAGCACGCATGGACCGGTTTTCCCGGTAATCCGTATTTGGC (site AAGCACGCTTC),0.476
21,AAGCACGCATGGACCGGTTTTCCCGGTAATCCGTATTTGGT (site AAGCACGCTAC),1.48
22,AAGCACGCATGGACCGGTTTTCCCGGTAATCCGTATTTGGT (site AAGCACGCTCC),0.315
23,AAGCACGCATGGACCGGTTTTCCCGGTAATCCGTATTTGGT (site AAGCACGCTGC),1.24
24,AAGCACGCATGGACCGGTTTTCCCGGTAATCCGTATTTGGT (site AAGCACGCTTC),0.427
